This note sets out measurements from PubChem BioAssay (NCI).

Test systems include U251 CNS; SW-620 colon; SN12C renal; OVCAR-8 ovarian; NCI-H23 lung; HOP-92 NSCLC; OVCAR-4 ovarian; DU-145 prostate; ACHN renal; SK-MEL-5 melanoma.
Common to all, as to experiment: DTP human tumour cell line panel, 48 h

Values joined by “and” are separate entries in the source; they are usually repeats but may differ in a detail not shown here. Equal entries are not always repeated.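 Dose response: 5 concentrations. Exposure: 48 h. Format: 96-well plates. Endpoint: linear interpolation; highest concentration if not reached. The concentration for 50% growth inhibition is given as GI50. TGI: concentration producing complete growth inhibition.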

On to `CCCCc1n(Cc2ccc3ccccc3n2)cc[n+]1Cc1ccc2ccccc2n1`, for which the GI50 in the experiment on U251 CNS was 925 nM; with SW-620 colon, 2560 nM; in the experiment on SN12C renal it was 1410 nM; with OVCAR-8 ovarian, 2.73 µM; in the experiment on NCI-H23 lung, 0.499 µM; in the experiment with HOP-92 NSCLC, 491 nM. Also, the GI50 in the experiment on OVCAR-4 ovarian was 381 nM; in the experiment with DU-145 prostate it was 3.27 µM; in the experiment on ACHN renal it was 17 µM; in the experiment with SK-MEL-5 melanoma, 827 nM. Besides, the TGI in the experiment with U251 CNS was determined as 12.4 µM; with SW-620 colon, 13.7 µM; in the experiment with SN12C renal, 11.1 µM; with OVCAR-8 ovarian, 12 µM; in the experiment with NCI-H23 lung, 8.54 µM; in the experiment on HOP-92 NSCLC, 4.34 µM. Further, the TGI in the experiment on OVCAR-4 ovarian was determined as 13.5 µM; in the experiment on DU-145 prostate, 16.2 µM; in the experiment with ACHN renal it was 42 µM; in the experiment on SK-MEL-5 melanoma, 2.21 µM.

In the case of `Fc1ccc(-c2ncn(CCCN3CCOCC3)c2-c2ccncc2)cc1`, the GI50 in the experiment on U251 CNS is more than 25000 nM; in the experiment with SW-620 colon, more than 25000 nM; with SN12C renal it was more than 25000 nM; in the experiment with OVCAR-8 ovarian it was more than 25 µM; in the experiment with NCI-H23 lung, more than 25 µM; in the experiment with HOP-92 NSCLC, more than 25000 nM. Moreover, the GI50 in the experiment on OVCAR-4 ovarian is more than 25000 nM; in the experiment with DU-145 prostate it was more than 25 µM; with ACHN renal, more than 25 µM; in the experiment on SK-MEL-5 melanoma, more than 25000 nM. Also, the TGI with U251 CNS, with SW-620 colon, in the experiment on SN12C renal, in the experiment on OVCAR-8 ovarian, in the experiment on NCI-H23 lung and with HOP-92 NSCLC was more than 25 µM in each case. Besides, the TGI with OVCAR-4 ovarian, in the experiment on DU-145 prostate, with ACHN renal and in the experiment on SK-MEL-5 melanoma was more than 25 µM each time.

Turning to `CCCS(=O)(=O)Nc1cccc(Nc2ncnc3cc(NC(=O)CCl)ccc23)c1Cl`, the GI50 with U251 CNS is 516 nM; in the experiment with SW-620 colon, 1230 nM; in the experiment with SN12C renal it was 1060 nM; with OVCAR-8 ovarian, 3.71 µM; in the experiment on NCI-H23 lung, 1.26 µM; with HOP-92 NSCLC, 4380 nM. In addition, the GI50 is 2950 nM in the experiment with OVCAR-4 ovarian, 3.09 µM in the experiment on DU-145 prostate, 3.44 µM with ACHN renal and 3400 nM with SK-MEL-5 melanoma. Also, the TGI in the experiment with U251 CNS worked out at 1.16 µM; with SW-620 colon it was 4.16 µM; in the experiment with SN12C renal it was 3.85 µM; in the experiment on OVCAR-8 ovarian it was 14.1 µM; in the experiment on NCI-H23 lung, 5.25 µM; in the experiment on HOP-92 NSCLC, 8.54 µM. Moreover, the TGI in the experiment on OVCAR-4 ovarian came out at 7.76 µM; with DU-145 prostate it was 6.31 µM; in the experiment with ACHN renal, 7.23 µM; in the experiment with SK-MEL-5 melanoma, 7.14 µM.

As to `CC1OC(CC(=O)O)Cc2c1c(O)c1c(O)cc(-c3cc(=O)c4c(=O)c5c(c(=O)c=4c3=O)CC(CC(=O)O)OC5C)c(O)c1c2O` (configuration not stated), the GI50 in the experiment with U251 CNS was 26100 nM; in the experiment on SW-620 colon, 22000 nM; in the experiment on SN12C renal, 29200 nM; in the experiment on NCI-H23 lung it was 32.7 µM; in the experiment with OVCAR-4 ovarian, 35100 nM; in the experiment with DU-145 prostate, 26.2 µM. Besides, the GI50 is 43.3 µM with ACHN renal and 60900 nM with SK-MEL-5 melanoma. The TGI in the experiment on U251 CNS is > 74 µM and 61 µM; in the experiment with SW-620 colon, 22.5 µM; with SN12C renal, 32 µM; in the experiment on OVCAR-8 ovarian, 75.9 µM; with NCI-H23 lung, 33.9 µM; in the experiment with HOP-92 NSCLC, 41.3 µM. Further, the TGI is 39.7 µM with OVCAR-4 ovarian, 96.2 µM in the experiment with DU-145 prostate, more than 81 µM with ACHN renal and 31.9 µM with SK-MEL-5 melanoma.

Consider `O=C1c2ccccc2C(=O)c2c1oc1c2c(=O)[nH]c2ccc(Cl)cc21`, for which the GI50 is 268 nM with U251 CNS; 332 nM in the experiment on SW-620 colon; 198 nM with SN12C renal; 0.389 µM in the experiment on OVCAR-8 ovarian; 0.355 µM in the experiment on NCI-H23 lung; 151 nM in the experiment on HOP-92 NSCLC. The GI50 with OVCAR-4 ovarian is 165 nM; in the experiment on DU-145 prostate, 0.279 µM; with ACHN renal it was 0.203 µM; in the experiment with SK-MEL-5 melanoma, 305 nM. Further, the TGI in the experiment with U251 CNS was found to be 0.767 µM; in the experiment on SW-620 colon it was 1.01 µM; with SN12C renal, 0.463 µM; with OVCAR-8 ovarian it was 2.29 µM; in the experiment with NCI-H23 lung, 1.83 µM; in the experiment with HOP-92 NSCLC, 0.389 µM. For the same compound, the TGI was found to be 0.443 µM in the experiment with OVCAR-4 ovarian, 0.781 µM in the experiment with DU-145 prostate, 0.577 µM in the experiment on ACHN renal and 1.21 µM with SK-MEL-5 melanoma.

For the compound `CC[C@]12C=CCN3CC[C@@]4(c5ccc(OC)cc5N(C)[C@H]4[C@@](O)(C(=O)OC)[C@@H]1OC(=O)CCC(=O)O[C@H]1CC[C@H]4[C@@H]5CC[C@H]6CC(=O)CC[C@]6(C)[C@H]5CC[C@]14C)[C@@H]32`, the GI50 in the experiment with U251 CNS is 3740 nM; with SW-620 colon, 3050 nM; in the experiment on SN12C renal it was 2880 nM; with OVCAR-8 ovarian, 5.84 µM; in the experiment with NCI-H23 lung it was 3.54 µM; in the experiment on HOP-92 NSCLC it was 1830 nM. Moreover, the GI50 in the experiment with OVCAR-4 ovarian is 2580 nM; in the experiment with DU-145 prostate, 3.66 µM; in the experiment with ACHN renal, 3.01 µM; with SK-MEL-5 melanoma, 1650 nM. Besides, the TGI in the experiment with U251 CNS was 22.8 µM; in the experiment on SW-620 colon it was 13.2 µM; in the experiment on SN12C renal, 36.2 µM; with OVCAR-8 ovarian it was more than 100 µM; in the experiment on NCI-H23 lung, more than 100 µM; in the experiment with HOP-92 NSCLC it was 9.72 µM. For the same compound, the TGI in the experiment with OVCAR-4 ovarian was more than 100 µM; in the experiment with DU-145 prostate, 61.2 µM; in the experiment with ACHN renal it was more than 100 µM; in the experiment on SK-MEL-5 melanoma, 4.03 µM.

Consider `S=C1SCN(Cc2ccccc2)CN1Cc1ccccc1`, for which the GI50 in the experiment on U251 CNS was 5610 nM; in the experiment on SW-620 colon, 3020 nM; with SN12C renal, 5010 nM; in the experiment with OVCAR-8 ovarian it was 21.6 µM; with NCI-H23 lung, 12.1 µM; in the experiment on HOP-92 NSCLC, 2370 nM. The GI50 was 9430 nM with OVCAR-4 ovarian, 2.69 µM with DU-145 prostate, 14.8 µM with ACHN renal and 13600 nM with SK-MEL-5 melanoma. Besides, the TGI with U251 CNS came out at 16.4 µM; in the experiment on SW-620 colon it was 11.8 µM; with SN12C renal it was 18.5 µM; in the experiment with OVCAR-8 ovarian, 90 µM; with NCI-H23 lung it was 42.9 µM; in the experiment with HOP-92 NSCLC it was 13.8 µM. The TGI was 27.6 µM in the experiment on OVCAR-4 ovarian, 9.18 µM in the experiment on DU-145 prostate, 28.2 µM with ACHN renal and 28.1 µM with SK-MEL-5 melanoma.

For the compound `CCOC(=O)Nc1ccc2c(c1)C(=O)N(CC)c1ccccc1O2`, the GI50 in the experiment on U251 CNS is 106 nM; in the experiment with SW-620 colon, 63.2 nM; with SN12C renal, 449 nM; with OVCAR-8 ovarian it was 0.235 µM; with NCI-H23 lung, 0.542 µM; with HOP-92 NSCLC, 1500 nM. For the same compound, the GI50 is 237 nM in the experiment with OVCAR-4 ovarian, 0.127 µM with DU-145 prostate, 0.232 µM in the experiment with ACHN renal and 106 nM in the experiment with SK-MEL-5 melanoma. For the same compound, the TGI with U251 CNS, in the experiment on SW-620 colon, in the experiment on SN12C renal, with OVCAR-8 ovarian, in the experiment on NCI-H23 lung and with HOP-92 NSCLC was more than 100 µM throughout. In addition, the TGI is more than 100 µM in the experiment with OVCAR-4 ovarian, more than 100 µM in the experiment with ACHN renal and 2.33 µM in the experiment on SK-MEL-5 melanoma.

On to `O=C(Nc1cn[nH]c1-c1nc2ccc(CN3CCOCC3)cc2[nH]1)NC1CC1`, for which the GI50 in the experiment with U251 CNS is 274 nM and 1300 nM; with SW-620 colon it was 573 nM and 1320 nM; in the experiment with SN12C renal, 468 nM and 2540 nM; in the experiment on OVCAR-8 ovarian, 1.74 µM and 5.19 µM; in the experiment on NCI-H23 lung it was 1.45 µM and 7.06 µM; in the experiment on HOP-92 NSCLC, 365 nM and 1060 nM. The GI50 in the experiment on OVCAR-4 ovarian is 1040 nM and > 10000 nM; in the experiment with DU-145 prostate, 2.6 µM and > 10 µM; with ACHN renal, 2.47 µM and 5.7 µM; in the experiment with SK-MEL-5 melanoma, 1340 nM and 8520 nM. The TGI with U251 CNS was 11.2 µM and > 10 µM; in the experiment on SW-620 colon, 11.5 µM and > 10 µM; in the experiment on SN12C renal it was 12.1 µM and > 10 µM; in the experiment on OVCAR-8 ovarian, 9.63 µM and > 10 µM; with NCI-H23 lung, 5.16 µM and > 10 µM; in the experiment on HOP-92 NSCLC it was 2.6 µM and 8.8 µM. In addition, the TGI in the experiment on OVCAR-4 ovarian was 12.4 µM and > 10 µM; with DU-145 prostate it was 14.7 µM and > 10 µM; in the experiment on ACHN renal, 17.7 µM and > 10 µM; in the experiment on SK-MEL-5 melanoma, 3.68 µM and > 10 µM.

Turning to `CCc1cccc(NC(=O)Nc2ccc(Oc3ccc4nc(NC(=O)OC)[nH]c4c3)cc2)c1`, the GI50 with U251 CNS is 4850 nM; with SW-620 colon it was 3050 nM; in the experiment on SN12C renal it was 8430 nM; in the experiment with OVCAR-8 ovarian, 5.79 µM; in the experiment with NCI-H23 lung, 5.59 µM; in the experiment with HOP-92 NSCLC, 2330 nM. Moreover, the GI50 is 4450 nM with OVCAR-4 ovarian, 4.94 µM with DU-145 prostate, 10.8 µM with ACHN renal and 1290 nM in the experiment on SK-MEL-5 melanoma. Besides, the TGI in the experiment with U251 CNS is more than 15.4 µM; in the experiment on SW-620 colon, 12.1 µM; with SN12C renal, more than 25 µM; with OVCAR-8 ovarian it was more than 18.8 µM; with NCI-H23 lung it was more than 20.8 µM; in the experiment with HOP-92 NSCLC, 10.4 µM. Also, the TGI is 9.89 µM with OVCAR-4 ovarian, more than 15.4 µM in the experiment on DU-145 prostate, more than 25 µM with ACHN renal and 7.15 µM with SK-MEL-5 melanoma.

The term GI50 denotes the concentration giving 50% growth inhibition. For orientation: TGI means the concentration at which net growth stops.
